Measured values published in patent US4518611A, “2-Furylbutyrolactone modulation of the immune system in mammals” (priority 1983, dated 1985).
“Also recorded” adds a separate entry of the source.

Columns and labels:
L-1210 leukemia cells = test: Treatment of L-1210 leukemia in BDF1 mice (T/C ratios); format: in vivo, mouse; conditions: 20 mg/kg, seven days
From the text: Mice of the BDF1 strain are given in i.p. inoculation of 10^6 L-1210 leukemia cells on day 0. Twenty-four hours later, groups of 7 mice each are started on a nine day treatment regimen of various doses of the compounds of this invention. The experiment is continued according to the guidelines provided under the National Cancer Institute protocol for screening new anti-cancer agents and T/C ratios (median or mean survival time of treated groups over median or mean survival time of controls) are calculated. A T/C value ≥1.25 (or 125%) is considered significant anticancer activity.
(§1) Mice of the BDF1 strain, inoculated with L-1210 leukemia cells, are treated for seven days with either 25, 50, 100, 200 or 400 mg/kg of Cpd. 1 or just buffer. The National Cancer Institute protocol for screening new anti-cancer agents is followed and T/C ratios are calculated.
as §1, with “either 100” for “either 25, 50, 100, 200 or 400”, “Cpd. 1, 20 mg/kg of 5-flourouracil (5-FU), a known anti-cancer agent,” for “Cpd. 1”

spleen lymphocytes [1] = test: In vitro lymphocyte stimulation assay, C57BL/6 spleen lymphocytes; format: cell-based, mouse
Procedure: (§2) The purpose of this assay is to challenge lymphocytes in microcultures with one or more polyclonal mitogens at concentrations that will induce mitogenesis within 72 hours of stimulation.
(§3) In the mouse model, spleens are removed from different strains of mice and the spleen cells are teased free and suspended in RPMI-1640 tissue culture medium at a concentration of usually […]. These cells are dispensed at a concentration of 5.0×10^5 cells per microculture well in a 96 well flat bottom 96 well tissue culture plate. All testing of the compounds of this invention or mitogens are done in replicates of 10. The cells are then treated with PHA, Con-A, specific antigens, or buffer only. If in vitro testing is done, varying concentrations of the compounds of this invention or buffer only are added to the cells as well. After treatment with the mitogens and/or compounds of this invention, the cells are incubated for 72 hours. The response of these cells to mitogens and/or the compounds of this invention is assessed using ^14 C-thymidine labeling on the fourth day at a concentration of 0.01 μCi/well. The labeled cells are harvested using a lymphocyte harvestor and placed onto fibrous paper discs. A scintillation cocktail is added to vials containing the discs and the results are obtained using a LKB-liquid scintillation counter (Model 1216/Rackbeta II). The data is expressed as a ratio of the cpm of the mitogen stimulated group to the control (nonmitogen) treated group=lymphocyte stimulation index (LSI).
(§4) The lymphocyte stimulation assay may be performed directly on spleen cells obtained from various strains of mice not treated with the compounds of this invention or on lymphocytes obtained from human […]. […] Alternatively, the mice may be treated in vivo with the compounds of this invention by intraperitoneal multi-dose schedules, followed by sacrifice and harvesting spleen lymphocytes. These cells are then tested for their response to polyclonal mitogens or specific antigens used to immunize the mice. In this system however, no additional compound is added to the in vitro lymphocyte stimulation assay system.
An in vitro lymphocyte stimulation assay is performed directly on normal spleen lymphocytes removed from five normal C57BL/6 mice, using concentrations of Cpd. […] Following three days of incubation the assay is completed.
An in vitro lymphocyte stimulation assay was performed using spleen lymphocytes from normal C57BL/6 mice. The lymphocytes were treated with either 1, 5, 10, 50 or 100 μg/well of Cpd. 1 or buffer.
Cpd. 2 was tested using normal spleen lymphocytes from C57BL/6 mice. A lymphocyte stimulation assay was conducted using either 1, 5, 10, 50, or 100 μg/well […] or just buffer.
Spleen cells from C57BL/6 mice were treated, in vitro, with the crystallizing reagents, succinic acid and succinimide. Since these compounds are spontaneously released from the molecular complex in solution at a molar ratio of 2 moles of Cpds. 1, 2, or 3 per mole of the crystalline reagent, these reagents were treated in the lymphocyte stimulation assay at proper molar concentrations.
The compound of example 3, Cpd. 3, was used to treat C57BL/6 spleen lymphocytes in vitro. The lymphocytes were treated with either 1, 5, 10, 50, or 100 μg/well of Cpd. 3 or just buffer and then a lymphocyte stimulation assay was performed.

spleen lymphocytes [2] = test: Lymphocyte stimulation assay after in vivo treatment, C57BL/6 mice; conditions: 4 days
Procedure: as §2, §3, §4
Two strains of mice, C57BL/6 and BDF1 are treated for seven days with i.p. administration of either 25, 50, 100, 200, or 400 mg/kg of Cpd. 1 or just buffer. This is followed on the eighth day by a lymphocyte stimulation assay.
A comparison is made of the lymphocyte response of C57BL/6 mice treated 4 days with i.p. administration of either 50, 100, 200, 400 or 800 mg/kg of Cpd. 1, 50, 100, 200, 400 or 800 mg/kg of ascorbic acid (AA), or just buffer. This is followed on the fifth day by a lymphocyte stimulation assay.
Two strains of mice, C57BL/6 and BALB/c, are treated 4 days with i.p. administration of either 50, 100, 200, or 400 mg/kg of Cpd. 1, or just buffer. This is followed on the fifth day by a lymphocyte stimulation assay.
C57BL/6 mice were treated with four daily i.p. doses of either 50, 100, 200, or 400 mg/kg of Cpd. 1 or just buffer. On the fifth day a lymphocyte stimulation assay was performed.
Mice of the C57BL/6 strain were tested with i.p. administration of either 100, 200, 400 or 600 mg/kg of Cpd. 1 or just buffer. This was followed by removal of spleens and treatment of lymphocytes therein with mitogens PHA and Con-A.
The compound of Example 2, Cpd. 2, was tested in vivo by using C57BL/6 mice and treating them with […] or just buffer for four consecutive days by the i.p. route. On the fifth day a lymphocyte stimulation assay was performed.

human lymphocytes = test: In vitro lymphocyte stimulation assay, human lymphocytes; format: cell-based; parameters: key to Lymphocyte Stimulation Index, PHA / Lymphocyte Stimulation Index, Con-A: LSI = cpm of mitogen-stimulated group / cpm of control group
Procedure: as §2, §3, §4
Lymphocytes isolated from 5 human volunteers are treated in vitro with PHA and Con-A and either 0.1, 1, 10, 50, or 100 μg/well of Cpd. 1, 0.1, 1, 10, 50, or 100 μg/well of AA, or buffer.

O=c1[nH]cc(F)c(=O)[nH]1 [5-FU, 5-flourouracil, reference compound]
Median Survival Time (L-1210 leukemia cells): 30 | T/C (L-1210 leukemia cells): 1.50

O=C1CCC(=O)N1 [Succinimide, succinimide, reference compound]
Lymphocyte Stimulation Index, Control (no mitogen) (spleen lymphocytes [1]; 13.92 μg/well): 1.4 | effect on PHA and Con-A mitogenesis (in words) (spleen lymphocytes [1]; in vitro): no significant suppressive or enhancing effect

O=C1O[C@H]([C@@H](O)CO)C(O)=C1O [AA, ascorbic acid, reference compound]
Lymphocyte Stimulation Index, Con-A (spleen lymphocytes [2]; 50 mg/kg i.p.): 25.5 | Lymphocyte Stimulation Index, Control (no mitogen) (spleen lymphocytes [2]; 50 mg/kg i.p.): .56 | Lymphocyte Stimulation Index, PHA (spleen lymphocytes [2]; 50 mg/kg i.p.): 17.1 | Lymphocyte Stimulation Index, Con-A (spleen lymphocytes [2]; 100 mg/kg i.p.): 19.8 | Lymphocyte Stimulation Index, Control (no mitogen) (spleen lymphocytes [2]; 100 mg/kg i.p.): 1.8 | Lymphocyte Stimulation Index, PHA (spleen lymphocytes [2]; 100 mg/kg i.p.): 17.1 | Lymphocyte Stimulation Index, Con-A (spleen lymphocytes [2]; 200 mg/kg i.p.): 21.1 | Lymphocyte Stimulation Index, Control (no mitogen) (spleen lymphocytes [2]; 200 mg/kg i.p.): 1.3 | Lymphocyte Stimulation Index, PHA (spleen lymphocytes [2]; 200 mg/kg i.p.): 10.0 | Lymphocyte Stimulation Index, Con-A (spleen lymphocytes [2]; 400 mg/kg i.p.): 17.8 | Lymphocyte Stimulation Index, Control (no mitogen) (spleen lymphocytes [2]; 400 mg/kg i.p.): 1.3 | Lymphocyte Stimulation Index, PHA (spleen lymphocytes [2]; 400 mg/kg i.p.): 14.3 | Lymphocyte Stimulation Index, Con-A (spleen lymphocytes [2]; 800 mg/kg i.p.): 23.9 | Lymphocyte Stimulation Index, Control (no mitogen) (spleen lymphocytes [2]; 800 mg/kg i.p.): .50 | Lymphocyte Stimulation Index, PHA (spleen lymphocytes [2]; 800 mg/kg i.p.): 12.1 | effect on Con-A response (in words) (spleen lymphocytes [2]; i.p., Con-A): a single stimulation of proliferation did occur at 50 mg/kg | effect on PHA response (in words) (spleen lymphocytes [2]; i.p., PHA): No statistically significant measurable effect | Lymphocyte Stimulation Index, Con-A (human lymphocytes; 0.1 μg/well): 24.37 | Lymphocyte Stimulation Index, PHA (human lymphocytes; 0.1 μg/well): 38.29 | Lymphocyte Stimulation Index, Con-A (human lymphocytes; 1.0 μg/well): 24.76 | Lymphocyte Stimulation Index, PHA (human lymphocytes; 1.0 μg/well): 34.69 | Lymphocyte Stimulation Index, Con-A (human lymphocytes; 10 μg/well): 27.35 | Lymphocyte Stimulation Index, PHA (human lymphocytes; 10 μg/well): 35.10 | Lymphocyte Stimulation Index, Con-A (human lymphocytes; 50 μg/well): 23.31 | Lymphocyte Stimulation Index, PHA (human lymphocytes; 50 μg/well): 35.93 | Lymphocyte Stimulation Index, Con-A (human lymphocytes; 100 μg/well): 25.18 | Lymphocyte Stimulation Index, PHA (human lymphocytes; 100 μg/well): 34.23 | effect on lymphocyte response (in words) (human lymphocytes; in vitro, PHA and Con-A): no significant proliferative or anti-proliferative effect

O=C(O)CCC(=O)O [Succinic Acid, succinic acid, reference compound]
effect on PHA and Con-A mitogenesis (in words) (spleen lymphocytes [1]; in vitro): a decrease in PHA and Con-A mitogenesis with increased succinic acid dosage

CN1C(=O)CCC1=O.Cc1ccc(C2(O)C(=O)OC3C(O)COC32O)o1.Cc1ccc(C2(O)C(=O)OC3C(O)COC32O)o1 (centres unmarked) [Cpd. 3, 2-furylbutyrolactone:N-methylsuccinimide]
Lymphocyte Stimulation Index, Control (no mitogen) (spleen lymphocytes [1]; 1 μg/well): .60 | Lymphocyte Stimulation Index, Control (no mitogen) (spleen lymphocytes [1]; 5 μg/well): .64 | Lymphocyte Stimulation Index, Control (no mitogen) (spleen lymphocytes [1]; 10 μg/well): .47 | Lymphocyte Stimulation Index, PHA (spleen lymphocytes [1]; 10 μg/well): 24.0 | Lymphocyte Stimulation Index, Control (no mitogen) (spleen lymphocytes [1]; 50 μg/well): .27 | Lymphocyte Stimulation Index, Control (no mitogen) (spleen lymphocytes [1]; 100 μg/well): .25 | effect on Con-A response (in words) (spleen lymphocytes [1]; in vitro, Con-A): The 50 μg/well dose slightly stimulated the response to Con-A; also recorded: the 100 μg/well dose suppressed the response | effect on PHA response (in words) (spleen lymphocytes [1]; in vitro, PHA): The 10 μg/well dose of Cpd. 3 significantly stimulated the response to PHA; also recorded: the 50 and 100 μg/well doses suppressed the response
